Data on 2 compounds can be found in patent publication US20060160915A1, “Photocurable compositions” (priority 2003, published 2006).

The nature of the series: Solubility properties in acrylate monomers. The note with it: 0.2 g in 2.5 g TMP(3EO)TA, 40° C. It is filed as physicochemical. The procedure:
For determining the solubility properties in acrylate monomers, which are customarily used for the preparation of overprint varnishes and UV-curable inks, 0.2 g each of the compounds obtained according to Examples 1 and 2 is stirred into 2.5 g of the acrylate monomer in question. In dipropylene glycol diacrylate (DPGDA) both compounds have dissolved within a period of 15 minutes at room temperature. In ethoxylated trimethylolpropane triacrylate (TMP(3EO)TA) the compound according to Example 2 dissolves within a period of 10 minutes at 40° C., while the compound according to Example 1 dissolves after only 4 minutes' heating at 40° C.

For `Cc1cc(C)c(C(=O)c2ccc(-c3ccccc3)cc2)c(C)c1` [Example 2, 2,4,6-trimethyl-4′-phenylbenzophenone], the “time to dissolve in ethoxylated trimethylolpropane triacrylate (TMP(3EO)TA)” value was at most 10 min.

Turning to `Cc1cccc(C(=O)c2ccc(-c3ccccc3)cc2)c1` [Example 1, 3-methyl-4′-phenylbenzophenone], the “time to dissolve in ethoxylated trimethylolpropane triacrylate (TMP(3EO)TA)” value turned out to be 4 min.
